Measurements taken from patent publication US8545816B2, “Benzoic acid ester compounds, compositions, uses and methods related thereto” (Ferrer Internacional, S.A., priority 2005, dated 2013).

Experiments:
[1] = Phototransposition under UVB lamp irradiation (UV absorption spectrum / TLC follow-up); format: physicochemical; settings: for time to complete phototransposition (conversion to the dibenzoylmethane / benzophenone sunscreen): solution in methanol
Method: A solution of 5 mg of 1-phenylvinyl 4-methoxybenzoate in 10 mL of methanol was irradiated with UVB lamps ([…]) for 20 minutes at 35° C. […] The conversion to benzoyl-4-methoxybenzoyl-methane was observed from the beginning, being the complete conversion in 5 minutes.
A sample of 4 mL of a solution containing 0.231 mg of 1-(4-methoxyphenyl)-vinyl 4-tert-butylbenzoate in 50 mL of methanol was irradiated with UVB lamps (60 W·m^−2) for 10 minutes at 35° C. The conversion to avobenzone was completed in 5 minutes.
A sample of 4 mL of a solution containing 0.400 mg of 1-(4-tert-butylphenyl)-vinyl 4-methoxybenzoate in 50 mL of methanol was irradiated with UVB lamps (60 W·m^−2) for 10 minutes at 35° C. The conversion to avobenzone was completed in 5 minutes.
A solution containing 5 mg of 4-benzoyloxy-2-methoxy-benzenesulfonic acid in 10 mL of methanol was irradiated with UVB lamps (60 W·m^−2) for 20 minutes at 35° C. The absorption spectrum was then recorded minute by minute. The conversion to sulisobenzone was complete in 10 minutes.
A sample of 4 mL of a solution containing 0.395 mg of 3-diethylaminophenyl benzoate in 50 mL of methanol was irradiated with UVB lamps (60 W·m^−2) for 20 minutes at 35° C. The phototransformation to 4-diethylamino-2-hydroxybenzophenone was completed in 10 minutes.
A sample of 5 mg of 3-methoxyphenyl benzoate in 10 mL of polydimethylsiloxane (viscosity 10000 cSt) was irradiated with UVB lamps (60 W·m^−2) for 15 hours and 20 minutes at 35° C. The phototransformation to oxybenzone was completed in 40 minutes.
A solution of 5 mg of 1-phenylvinyl 4-tert-butylbenzoate in 10 mL of tert-butanol was irradiated with UVB lamps (60 W·m^−2) for 5 hours at 35° C.

[2] = cited from earlier work; for Absorbance: UV region absorbed; for Protection nm: wavelength range of protection

Structure (SMILES) | time to complete phototransposition (conversion to the dibenzoylmethane / benzophenone sunscreen) ([1]; UVB lamps 60 W·m^−2, 35° C.) [min] | Absorbance [2] | Protection nm [2] | further results
C=C(OC(=O)c1ccc(C(C)(C)C)cc1)c1ccc(OC)cc1 [1-(4-Methoxyphenyl)-vinyl 4-tert-butylbenzoate] | 5 |  |  | 
C=C(OC(=O)c1ccc(OC)cc1)c1ccc(C(C)(C)C)cc1 [1-(4-Tert-butylphenyl)-vinyl 4-methoxybenzoate] | 5 |  |  | 
C=C(OC(=O)c1ccc(OC)cc1)c1ccccc1 [1-phenylvinyl 4-methoxybenzoate, 1-Phenylvinyl 4-methoxybenzoate] | 5 |  |  | crude reaction spectrum after irradiation ([1]; methanol, UVB lamps, 20 minutes, 35° C.): new absorption band in UVA zone
C=C(OC(=O)c1ccc(C(C)(C)C)cc1)c1ccccc1 [1-phenylvinyl 4-tert-butylbenzoate, 1-Phenylvinyl 4-tert-butyl-benzoate] |  |  |  | products detected after irradiation (thin layer chromatography, 1H-NMR) ([1]; tert-butanol, UVB lamps 60 W·m^−2, 5 hours, 35° C.): Some different compounds were detected by thin layer chromatography (hexane/ethyl acetate 2:1), one of said compounds being benzoyl-4-tert-butylbenzoylmethane
CCN(CC)c1cccc(OC(=O)c2ccccc2)c1 [3-diethylaminophenyl benzoate, 3-Diethylaminophenyl benzoate] | 10 |  |  | 
COc1cccc(OC(=O)c2ccccc2)c1 [3-methoxyphenyl benzoate, 3-Methoxyphenyl benzoate] |  |  |  | time to complete phototransformation to oxybenzone ([1]; in polydimethylsiloxane (viscosity 10000 cSt), UVB lamps 60 W·m^−2, 35° C.): 40 min
COc1cc(OC(=O)c2ccccc2)ccc1S(=O)(=O)O [4-Benzoyloxy-2-methoxybenzene-sulfonic acid] | 10 |  |  | 
COc1ccc(C(=O)CC(=O)c2ccc(C(C)(C)C)cc2)cc1 [Avobenzone, 4-tert-butyl-4′-methoxydibenzoylmethane] |  | UVA I^1 (340-400 nm) | 320-400 nm | 
COc1ccc(C(=O)c2ccccc2)c(O)c1 [Oxybenzone, 2-hydroxy-4-methoxybenzophenone] |  | UVB, UVA II^2 | 270-350 nm | 
COc1cc(O)c(C(=O)c2ccccc2)cc1S(=O)(=O)O [Sulisobenzone, 5-benzoyl-4-hydroxy-2-methoxy-benzenesulfonic acid] |  | UVB, UVA II^2 | 260-375 nm | 
